Among the data in patent US11427615B2, “Peptide compound and application thereof, and composition containing peptide compound” (XDCEXPLORER (SHANGHAI) CO., LTD., priority 2017, dated 2022) are EC50 values, retold here.

SMILES strings stand for the structures. Where two headings read alike, the source gives them in different places. Starred links: 1 amine or outer side, 2 acyl side, 3 side chain; linkers in the order of their positions; H or OH if unused. Non-standard residues stand in square brackets, D forms with d. Residues, ends and D or L forms follow the SMILES beside them. *: point of attachment. dPhe(2,4-Cl2) = N[C@H](Cc1ccc(Cl)cc1Cl)C(=O)O; Dnp = O=[N+]([O-])c1ccc(*)c([N+](=O)[O-])c1; X12 = O=C([C@@H]1Cc2ccccc2N1[*:1])[*:2]; Pro(4R-NH2) = N[C@H]1CN[C@H](C(=O)O)C1; dAla(2-furyl) = N[C@H](Cc1ccco1)C(=O)O; Arg(Me) = CNC(=N)NCCC[C@H](N)C(=O)O; Hyp = O=C(O)[C@@H]1C[C@@H](O)CN1; 2Pal = N[C@@H](Cc1ccccn1)C(=O)O; 2Thi = N[C@@H](Cc1cccs1)C(=O)O; NMeL = CN[C@@H](CC(C)C)C(=O)O; αMeL = CC(C)C[C@](C)(N)C(=O)O; Nonanoyl = CCCCCCCCC(=O)*; Pip = O=C(O)[C@@H]1CCCCN1; Ac6c = NC1(C(=O)O)CCCCC1; Thp = NC1(C(=O)O)CCOCC1; Dap = NC[C@H](N)C(=O)O; AEEA = NCCOCCOCC(=O)O; azaGly = NNC(=O)O; βAla = NCCC(=O)O

This assay has as its target T1, human kiss1 receptor (GPR54) (Homo sapiens, UniProt Q969F8).
T1 construct: host or cells: NFAT-bla CHO-K1 cells (Chinese hamster ovary), purchased recombinant cell line
Nature of the assay: Kiss1 receptor (GPR54) binding activity of agonists, FRET detection in NFAT-bla CHO-K1 cells. The assay is classed as cell-based. Particulars: GPR54, measured according to the method of effect Embodiment 1, preliminary data.

The mark [1] stands for this setting: read-out: Preliminary measurement data (GPR54) EC50.

T1 sequence (Q969F8 whole entry): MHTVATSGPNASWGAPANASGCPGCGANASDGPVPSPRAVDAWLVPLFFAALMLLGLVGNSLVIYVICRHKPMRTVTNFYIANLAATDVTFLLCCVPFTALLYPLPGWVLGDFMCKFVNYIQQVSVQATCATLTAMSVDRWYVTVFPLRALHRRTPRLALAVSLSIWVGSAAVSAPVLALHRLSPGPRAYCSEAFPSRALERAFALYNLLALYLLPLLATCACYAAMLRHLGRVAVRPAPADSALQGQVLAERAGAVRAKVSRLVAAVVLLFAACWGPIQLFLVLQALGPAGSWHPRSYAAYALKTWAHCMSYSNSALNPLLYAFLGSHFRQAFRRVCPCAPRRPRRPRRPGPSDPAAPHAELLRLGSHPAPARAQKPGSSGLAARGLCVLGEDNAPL
Procedure: Effect Embodiment 1 Determination of Kiss1 Receptor (GPR54) Binding Activity of Kiss1 Receptor (GPR54) Agonist
The binding activity test of each compound from the above the embodiments with kiss1 receptor (GPR54) was performed by fluorescence energy resonance transfer (FRET) detection technology to detect EC50 values of polypeptides and peptide analogs. The cells used in this experiment were NFAT-bla CHO-K1 cells (k1720, invitrogen, thermosher) that express human kiss1 receptor (GPR54). The specific operations were as follows:
Day 1: Seeding Cells in Plate
1. Microscope (CKX41, OLYMPUS), object lens×4 times, ocular lens×10 times. The cells were ensured in a good condition.
2. Digesting the cells, adding 3 ml of 0.05% pancreatin into a culture dish; cells were placed in a 37° C., 5% CO2 incubator for 2 minutes (Thermo Fisher). After the cells became round under the microscope, 7 ml of culture medium was added. The formula of culture medium was as follows: DMEM 90%, dialzedfbS10, NEAA 0.1 mM, HEPES 25 mM, Penicillin 100 U/ml, Streptomycin 100 μm/ml, pH7.3. After blowing and stirring, it was transferred to 15 mL centrifuge tube (430790, Corning). Centrifuge at 1000 rpm for 5 min (5810R, Eppendorf) and the supernatant was discard.
3. Adding 7 mL of culture medium (DMEM+0.1% BSA), it was pipetting into single cell suspension, after counting with Bio-RAD counter, the cell density was adjusted to 312,500 cells/ml.
4. Cells were inoculated into 384 well plates at 32 μL per well, and the cell number was controlled at 10000 cells/well. 32 μl of culture medium was added into the blank control.
Day 2: Dosing and Data Analysis
1) The compound to be tested was prepared into 50 mM working solution with DMSO.
2) 40 μl of the working solution of the compound to be tested was added into column 2 of row A-H of U-shaped 96-well plate (3797, comings), and 60 μl of DMSO was added into column 3-11. 20 μl of compound solution was sucked from the second column to the third column with a multichannel pipette blowing and stirring evenly; 20 μl of compound solution was absorbed from the third column with a multichannel pipette, then added into the fourth column, blowed and stirred to mix well; the compound was serially diluted 4-fold to a total of 10 concentrations. Column 1 and column 12 of 96-well plates were supplemented with 40 μl DMSO.
2. Intermediate Plate Configuration
1) AU-shaped 96-well plate was used, 199 μL of culture medium (DMEM+0.1% BSA) was added to each well, 1 μL of diluted compound (or DMSO) was sucked from 1000× compound plate and added into the 96-well plate at the corresponding position, blowed and stirred to mix well.
2) Homemade positive compounds and compounds to be tested were added. The cell culture plate was took out from the incubator and cells state was observed under microscope. Diluted compound in the intermediate plate or DMSO was added into the cell, 8 μl per well.
3) Cells were cultured in 37° C. and 5% CO2 for 4 hours.
3. The Substrate was Added to Detect the Binding of the Drug to the Receptor
1) 1 μmol/L CCF-4AM solution and buffer solution B, C, D were equilibrated to room temperature. LiveBLAZER™-FRET B/G Loading Kit (K1095, thermo Fisher) containing CCF-4AM and solution B, solution C, solution D were also available from Invitrogen (K1157, thermo Fisher).
2) 6× loading solution was prepared: 6 μl of CCF-4AM dissolved solution A, 60 μl of solution b, 904 μl of solution c, and 30 μl of solution D were pipetted into EP tube, blowed and stirred to mix well.
3) 8 μl of the above-mentioned liquid was sucked with a multichannel pipette, added into a 96-well plate, and incubated for 2 hours at room temperature.
4) The PerkinElmer detector was used to detect the luminous signals of each hole. FI mode, λex=409 nm, λem1=460 nm, λem2=530 nm.
4. Data Processing Using Graphpad Prism 5 (GraphPad Software. Inc)
Effective rate %=(Signal−Min)/(Max−Min)×100%.

As a reminder, the EC50 is the concentration at which the effect is half-maximal. Take `CNC(=N)NCCC[C@H](NC(=O)[C@H](CC(C)C)NC(=O)C1(NC(=O)[C@H](Cc2ccccc2)NC(=O)[C@@H](NC(=O)[C@H](CC(N)=O)NC(=O)[C@@H]2C[C@@H](O)CN2C(=O)[C@@H](Cc2ccc(O)cc2)NC(C)=O)[C@@H](C)O)CCOCC1)C(=O)N[C@@H](Cc1c[nH]c2ccccc12)C(N)=O` [YA-354, Ac-(D-Tyr)-Hyp-Asn-Thr-Phe-morpholino cyclic amino acid-Leu-Arg(Me)-Trp-NH2] (Ac-[dY][Hyp]NTF[Thp]L[Arg(Me)]W-NH2): the half-maximal effective concentration (EC50) under setting [1] was 0.26 nM.

`CNC(=N)NCCC[C@H](NC(=O)[C@H](CC(C)C)NC(=O)NNC(=O)[C@H](Cc1ccccc1)NC(=O)[C@@H](NC(=O)[C@H](CC(N)=O)NC(=O)[C@](C)(CC(C)C)NC(=O)[C@@H](Cc1ccc(O)cc1)NC(C)=O)[C@@H](C)O)C(=O)N[C@@H](Cc1c[nH]c2ccccc12)C(N)=O` [YA-379, Ac-(D-Tyr)-AlphaMeLeu-Asn-Thr-Phe-azaGly-Leu-Arg(Me)-Trp-NH2] (Ac-[dY][αMeL]NTF[azaGly]L[Arg(Me)]W-NH2): the EC50 under setting [1] came out at 0.015 nM.

As for `CNC(=N)NCCC[C@H](NC(=O)[C@H](CC(C)C)NC(=O)NNC(=O)[C@H](Cc1ccccc1)NC(=O)[C@H](Cc1cccs1)NC(=O)[C@H](CC(N)=O)NC(=O)[C@@H]1C[C@@H](O)CN1C(=O)[C@@H](Cc1ccc(O)cc1)NC(C)=O)C(=O)N[C@@H](Cc1c[nH]c2ccccc12)C(N)=O` [YA-144, Ac-(D-Tyr)-Hyp-Asn-Thi-Phe-azaGly-Leu-Arg(Me)-Trp-NH2] (Ac-[dY][Hyp]N[2Thi]F[azaGly]L[Arg(Me)]W-NH2), under setting [1], the EC50 came out at 0.201 nM.

`CNC(=N)NCCC[C@H](NC(=O)[C@H](CC(C)C)NC(=O)[C@@H]1Cc2ccccc2N1C(=O)[C@H](Cc1ccccc1)NC(=O)[C@@H](NC(=O)[C@H](CC(N)=O)NC(=O)[C@@H]1C[C@@H](O)CN1C(=O)[C@@H](Cc1ccc(O)cc1)NC(C)=O)[C@@H](C)O)C(=O)N[C@@H](Cc1c[nH]c2ccccc12)C(N)=O` [YA-221, Ac-D-Tyr-Hyp-Asn-Thr-Phe-Ind-Leu-Arg(Me)-Trp-NH2] (Ac-[dY][Hyp]NTF[X12]L[Arg(Me)]W-NH2): the EC50 under setting [1] was determined as 0.64 nM.

With `CNC(=N)NCCC[C@H](NC(=O)[C@H](CC(C)C)NC(=O)NNC(=O)[C@H](Cc1ccccc1)NC(=O)[C@@H](NC(=O)[C@H](CC(N)=O)NC(=O)[C@@H]1C[C@@H](N)CN1C(=O)[C@@H](Cc1ccc(O)cc1)NC(C)=O)[C@@H](C)O)C(=O)N[C@@H](Cc1c[nH]c2ccccc12)C(N)=O` [YA-83, Ac-D-Tyr-Pro(4-NH2)-Asn-Thr-Phe-azaGly-Leu-Arg(Me)-Trp-NH2] (Ac-[dY][Pro(4R-NH2)]NTF[azaGly]L[Arg(Me)]W-NH2), the EC50 under setting [1] was found to be 0.008 nM.

Regarding `CNC(=N)NCCC[C@H](NC(=O)C(CC(C)C)C(=S)NCNC(=O)[C@H](Cc1ccccc1)NC(=O)[C@@H](NC(=O)[C@H](CC(N)=O)NC(=O)[C@@H]1CC(F)(F)CN1C(=O)[C@@H](Cc1ccc(Cl)cc1Cl)NC(C)=O)[C@@H](C)O)C(=O)N[C@@H](Cc1c[nH]c2ccccc12)C(N)=O` (single isomer, unassigned) [YA-255, Ac-[D-Phe(2,4-DiCl)]-DiFluorPro-Asn-Thr-Phe-ψ(NHCS) Gly-Leu-Arg(Me)-Trp-NH2], the half-maximal effective concentration (EC50) under setting [1] was determined as 0.028 nM.

On to `CNC(=N)NCCC[C@H](NC(=O)[C@H](CC(C)C)NC(=O)NNC(=O)[C@H](Cc1ccccc1)NC(=O)[C@@H](NC(=O)[C@H](CC(N)=O)NC(=O)[C@@H]1C[C@@H](O)CN1C(=O)[C@@H](Cc1ccc(O)cc1)NC(=O)CCNC(=O)CCNC(=O)[C@H](CCC(N)=O)NC(=O)[C@@H]1CCCN1C(=O)[C@H](CCCNC(=N)N)NC(=O)[C@H](CCCNC(=N)N)NC(=O)[C@H](CCCNC(=N)N)NC(=O)[C@H](CCC(N)=O)NC(=O)[C@H](CCCNC(=N)N)NC(=O)[C@H](CCCNC(=N)N)NC(=O)[C@H](CCCCN)NC(=O)[C@H](CCCCN)NC(=O)[C@H](CCCNC(=N)N)NC(=O)CNC(C)=O)[C@@H](C)O)C(=O)N[C@@H](Cc1c[nH]c2ccccc12)C(N)=O` [YA-291, Ac-Gly-Arg-Lys-Lys-Arg-Arg-Gln-Arg-Arg-Pro-Gln-(Beta-Ala)-(Beta-Ala)-(D-Tyr)-Hyp-Asn-Thr-Phe-Azag-Leu-Arg(Me)-Trp-NH2] (Ac-GRKKRRQRRRPQ[βAla][βAla][dY][Hyp]NTF[azaGly]L[Arg(Me)]W-NH2), for which the half-maximal effective concentration (EC50) under setting [1] worked out at 0.31 nM.

As for `CNC(=N)NCCC[C@H](NC(=O)[C@H](CC(C)C)NC(=O)NNC(=O)[C@H](Cc1ccccc1)NC(=O)[C@@H](NC(=O)[C@H](CC(N)=O)NC(=O)[C@@H]1C[C@@H](O)CN1C(=O)[C@H](Cc1ccccn1)NC(C)=O)[C@@H](C)O)C(=O)N[C@@H](Cc1c[nH]c2ccccc12)C(N)=O` [YA-68, Ac-2Pal-Hyp-Asn-Thr-Phe-azaGly-Leu-Arg(Me)-Trp-NH2] (Ac-[2Pal][Hyp]NTF[azaGly]L[Arg(Me)]W-NH2), the EC50 under setting [1] amounted to 0.18 nM.

With `CNC(=N)NCCC[C@H](NC(=O)[C@H](CC(C)C)NC(=O)C1(NC(=O)[C@H](Cc2ccccc2)NC(=O)[C@@H](NC(=O)[C@H](CC(N)=O)NC(=O)[C@@H]2C[C@@H](O)CN2C(=O)[C@@H](Cc2ccco2)NC(C)=O)[C@@H](C)O)CCCCC1)C(=O)N[C@@H](Cc1c[nH]c2ccccc12)C(N)=O` [YA-197, Ac-(D-2Fua)-Hyp-Asn-Thr-Phe-A6c-Leu-Arg(Me)-Trp-NH2] (Ac-[dAla(2-furyl)][Hyp]NTF[Ac6c]L[Arg(Me)]W-NH2), under setting [1], the EC50 came to 0.57 nM.

`CNC(=N)NCCC[C@H](NC(=O)[C@H](CC(C)C)NC(=O)NNC(=O)[C@H](Cc1ccccc1)NC(=O)[C@@H](NC(=O)[C@H](CC(N)=O)NC(=O)[C@@H]1C[C@@H](O)CN1C(=O)[C@H](CNc1ccc([N+](=O)[O-])cc1[N+](=O)[O-])NC(C)=O)[C@@H](C)O)C(=O)N[C@@H](Cc1c[nH]c2ccccc12)C(N)=O` [YA-41, Ac-Dap(Dnp)-Hyp-Asn-Thr-Phe-azaGly-Leu-Arg(Me)-Trp-NH2] (Ac-[Dap](Dnp)[Hyp]NTF[azaGly]L[Arg(Me)]W-NH2) showed an EC50 (Preliminary measurement data (GPR54) EC50, nM)) of 0.095 nM.

On to `CCCCCCCCC(=O)NCCOCCOCC(=O)N[C@H](Cc1ccc(O)cc1)C(=O)N1C[C@H](O)C[C@H]1C(=O)N[C@@H](CC(N)=O)C(=O)N[C@H](C(=O)N[C@@H](Cc1ccccc1)C(=O)NNC(=O)N[C@@H](CC(C)C)C(=O)N[C@@H](CCCNC(=N)NC)C(=O)N[C@@H](Cc1c[nH]c2ccccc12)C(N)=O)[C@@H](C)O` [YA-295, Nonanoyl-OEG-D-Tyr-Hyp-Asn-Thr-Phe-azaGly-Leu-Arg(Me)-Trp-NH2] ({Nonanoyl-AEEA}-[dY][Hyp]NTF[azaGly]L[Arg(Me)]W-NH2), for which the concentration for a half-maximal effect (EC50) under setting [1] stood at 0.02 nM.

As to `CNC(=N)NCCC[C@H](NC(=O)[C@H](CC(C)C)NC(=O)[C@@H](Cc1ccco1)NC(=O)[C@H](Cc1ccccc1)NC(=O)[C@@H](NC(=O)[C@H](CC(N)=O)NC(=O)[C@@H]1C[C@@H](O)CN1C(=O)[C@@H](Cc1ccc(O)cc1)NC(C)=O)[C@@H](C)O)C(=O)N[C@@H](Cc1c[nH]c2ccccc12)C(N)=O` [YA-168, Ac-D-Tyr-Hyp-Asn-Thr-Phe-(D-2Fua)-Leu-Arg(Me)-Trp-NH2] (Ac-[dY][Hyp]NTF[dAla(2-furyl)]L[Arg(Me)]W-NH2), under setting [1], the EC50 came out at 0.531 nM.

Take `CNC(=N)NCCC[C@H](NC(=O)[C@H](CC(C)C)N(C)C(=O)CCNC(=O)[C@H](Cc1ccccc1)NC(=O)[C@@H](NC(=O)[C@H](CC(N)=O)NC(=O)[C@@H]1CCCCN1C(=O)[C@@H](Cc1ccc(Cl)cc1Cl)NC(C)=O)[C@@H](C)O)C(=O)N[C@@H](Cc1c[nH]c2ccccc12)C(N)=O` [YA-185, Ac-[D-Phe(2,4-DiCl)]-(S-Pip)-Asn-Thr-Phe-BetaAla-NMeLeu-Arg(Me)-Trp-NH2] (Ac-[dPhe(2,4-Cl2)][Pip]NTF[βAla][NMeL][Arg(Me)]W-NH2): under setting [1], the EC50 was 3.63 nM.
